Common to all, as to experiment: Kinase panel study
Format in all cases: biochemical
Holding throughout (conditions): read-out: Percentage of inhibition; for inhibition at 1 µM: 1000nM; for inhibition at 10 µM: 10000nM

The target in one test is T1, CDK4/cyclin D3 (Homo sapiens, UniProt P11802).
T1 construct: purchased Thermo Fisher Scientific
The essentials: (§1)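 In vitro, kinase panel; ZLyte or Adapta SOP; single-concentration testing (1 or 10 µM); output = % inhibition, plus IC50 in panel.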

Another test deals with T2, KIT V559D V654A (Homo sapiens, UniProt P10721, V559D/V654A).
T2 construct: purchased Thermo Fisher Scientific
The essentials: as §1

For the next test, the target named is T3, MELK (Homo sapiens, UniProt Q14680).
T3 construct: purchased Thermo Fisher Scientific
The essentials:
as §1

The next test deals with T4, NEK1 (Homo sapiens, UniProt Q96PY6).
T4 construct: purchased Thermo Fisher Scientific
T4 sequence (Q96PY6 1-1258): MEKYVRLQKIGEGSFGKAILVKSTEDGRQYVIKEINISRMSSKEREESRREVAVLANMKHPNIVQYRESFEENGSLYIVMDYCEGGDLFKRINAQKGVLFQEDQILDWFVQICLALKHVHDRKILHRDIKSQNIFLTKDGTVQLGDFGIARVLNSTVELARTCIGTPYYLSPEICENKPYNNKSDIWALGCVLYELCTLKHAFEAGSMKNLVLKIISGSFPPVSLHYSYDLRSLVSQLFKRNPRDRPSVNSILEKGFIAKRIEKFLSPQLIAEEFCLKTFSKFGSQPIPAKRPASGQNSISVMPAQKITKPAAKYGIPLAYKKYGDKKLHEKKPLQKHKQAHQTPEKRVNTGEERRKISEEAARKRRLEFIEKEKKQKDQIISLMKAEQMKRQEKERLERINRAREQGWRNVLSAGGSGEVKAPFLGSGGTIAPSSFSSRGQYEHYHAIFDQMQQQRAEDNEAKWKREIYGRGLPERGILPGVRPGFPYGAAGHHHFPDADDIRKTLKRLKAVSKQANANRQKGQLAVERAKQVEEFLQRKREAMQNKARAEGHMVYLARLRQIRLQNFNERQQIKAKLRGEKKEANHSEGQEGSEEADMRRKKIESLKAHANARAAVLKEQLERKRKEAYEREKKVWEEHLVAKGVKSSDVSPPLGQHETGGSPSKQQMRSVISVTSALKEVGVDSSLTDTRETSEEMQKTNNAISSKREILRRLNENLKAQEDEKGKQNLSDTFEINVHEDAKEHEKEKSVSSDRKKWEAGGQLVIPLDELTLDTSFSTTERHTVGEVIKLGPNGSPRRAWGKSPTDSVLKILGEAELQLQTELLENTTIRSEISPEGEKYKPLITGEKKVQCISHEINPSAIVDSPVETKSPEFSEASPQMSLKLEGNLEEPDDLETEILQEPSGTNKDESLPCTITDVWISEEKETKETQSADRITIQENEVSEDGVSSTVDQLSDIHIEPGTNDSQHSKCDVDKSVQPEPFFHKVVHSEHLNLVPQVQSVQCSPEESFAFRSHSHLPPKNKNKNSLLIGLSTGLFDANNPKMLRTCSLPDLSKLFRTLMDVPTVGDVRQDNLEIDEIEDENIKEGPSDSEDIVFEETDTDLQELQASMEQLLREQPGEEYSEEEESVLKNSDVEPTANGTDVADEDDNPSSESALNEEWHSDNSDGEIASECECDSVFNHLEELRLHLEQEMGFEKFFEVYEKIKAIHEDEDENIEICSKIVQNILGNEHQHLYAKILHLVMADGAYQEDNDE
In outline:
as §1

The target of another test is T5, NIM1K (Homo sapiens, UniProt Q8IY84).
T5 construct: purchased Thermo Fisher Scientific
The essentials:
as §1

Another test addresses T6, PAK2 (PAK65) (Homo sapiens, UniProt Q13177).
T6 construct: purchased Thermo Fisher Scientific
In outline: as §1

SMILES strings stand for the structures.

T3 sequence (Q14680 whole entry): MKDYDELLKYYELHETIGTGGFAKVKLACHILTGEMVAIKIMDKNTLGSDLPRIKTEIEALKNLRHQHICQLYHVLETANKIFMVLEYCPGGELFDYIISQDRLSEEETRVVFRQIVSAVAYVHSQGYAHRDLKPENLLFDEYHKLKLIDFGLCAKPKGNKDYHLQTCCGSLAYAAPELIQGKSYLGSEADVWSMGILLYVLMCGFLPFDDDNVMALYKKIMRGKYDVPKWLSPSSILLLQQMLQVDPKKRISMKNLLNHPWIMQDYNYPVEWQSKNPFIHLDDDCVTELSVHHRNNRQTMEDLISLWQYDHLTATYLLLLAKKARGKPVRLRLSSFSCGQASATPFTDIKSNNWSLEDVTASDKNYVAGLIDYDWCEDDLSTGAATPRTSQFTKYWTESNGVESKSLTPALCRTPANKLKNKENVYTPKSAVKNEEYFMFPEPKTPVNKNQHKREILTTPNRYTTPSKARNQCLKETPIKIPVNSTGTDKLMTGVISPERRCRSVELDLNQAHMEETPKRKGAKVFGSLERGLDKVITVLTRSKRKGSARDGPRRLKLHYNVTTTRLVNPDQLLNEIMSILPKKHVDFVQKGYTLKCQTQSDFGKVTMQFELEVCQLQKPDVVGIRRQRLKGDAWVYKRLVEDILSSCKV
T2 sequence (P10721 26-976 V559D/V654A): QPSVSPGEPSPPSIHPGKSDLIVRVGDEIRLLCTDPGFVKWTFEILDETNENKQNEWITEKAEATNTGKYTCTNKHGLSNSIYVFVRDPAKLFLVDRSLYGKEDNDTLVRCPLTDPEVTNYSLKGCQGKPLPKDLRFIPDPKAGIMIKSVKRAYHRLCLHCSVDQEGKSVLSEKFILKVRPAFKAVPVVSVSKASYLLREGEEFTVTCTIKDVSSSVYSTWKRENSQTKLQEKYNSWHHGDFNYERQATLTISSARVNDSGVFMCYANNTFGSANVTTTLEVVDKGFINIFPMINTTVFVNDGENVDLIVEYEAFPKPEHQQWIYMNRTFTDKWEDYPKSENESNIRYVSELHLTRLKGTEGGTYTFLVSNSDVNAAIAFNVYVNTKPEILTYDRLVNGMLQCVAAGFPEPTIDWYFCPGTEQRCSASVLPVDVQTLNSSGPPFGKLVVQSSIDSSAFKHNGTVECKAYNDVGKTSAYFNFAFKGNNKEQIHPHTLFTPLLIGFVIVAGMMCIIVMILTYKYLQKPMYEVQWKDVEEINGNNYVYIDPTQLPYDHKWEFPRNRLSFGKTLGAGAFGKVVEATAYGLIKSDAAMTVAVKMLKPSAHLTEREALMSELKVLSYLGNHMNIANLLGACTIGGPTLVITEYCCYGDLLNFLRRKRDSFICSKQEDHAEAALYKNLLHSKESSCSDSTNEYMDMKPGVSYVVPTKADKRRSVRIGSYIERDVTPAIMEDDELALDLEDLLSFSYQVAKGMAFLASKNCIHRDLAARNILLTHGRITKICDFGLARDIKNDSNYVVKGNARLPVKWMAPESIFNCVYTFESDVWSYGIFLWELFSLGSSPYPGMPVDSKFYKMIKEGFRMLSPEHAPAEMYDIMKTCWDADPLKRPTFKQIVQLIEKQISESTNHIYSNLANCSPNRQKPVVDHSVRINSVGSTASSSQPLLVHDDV
T6 sequence (Q13177 whole entry): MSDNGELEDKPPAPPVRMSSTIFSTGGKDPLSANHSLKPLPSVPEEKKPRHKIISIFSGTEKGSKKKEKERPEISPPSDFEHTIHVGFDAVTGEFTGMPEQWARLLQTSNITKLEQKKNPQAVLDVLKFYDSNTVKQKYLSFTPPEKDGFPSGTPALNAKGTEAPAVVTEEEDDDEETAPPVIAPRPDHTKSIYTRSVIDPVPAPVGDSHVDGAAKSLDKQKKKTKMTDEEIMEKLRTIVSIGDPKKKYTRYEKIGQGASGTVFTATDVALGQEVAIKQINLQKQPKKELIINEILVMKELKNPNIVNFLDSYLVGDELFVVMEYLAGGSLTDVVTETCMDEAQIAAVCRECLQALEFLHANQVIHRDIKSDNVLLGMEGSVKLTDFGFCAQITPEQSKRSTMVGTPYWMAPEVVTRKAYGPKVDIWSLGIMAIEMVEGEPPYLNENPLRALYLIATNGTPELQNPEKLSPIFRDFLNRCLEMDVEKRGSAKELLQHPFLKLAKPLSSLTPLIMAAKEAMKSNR
T5 sequence (Q8IY84 whole entry): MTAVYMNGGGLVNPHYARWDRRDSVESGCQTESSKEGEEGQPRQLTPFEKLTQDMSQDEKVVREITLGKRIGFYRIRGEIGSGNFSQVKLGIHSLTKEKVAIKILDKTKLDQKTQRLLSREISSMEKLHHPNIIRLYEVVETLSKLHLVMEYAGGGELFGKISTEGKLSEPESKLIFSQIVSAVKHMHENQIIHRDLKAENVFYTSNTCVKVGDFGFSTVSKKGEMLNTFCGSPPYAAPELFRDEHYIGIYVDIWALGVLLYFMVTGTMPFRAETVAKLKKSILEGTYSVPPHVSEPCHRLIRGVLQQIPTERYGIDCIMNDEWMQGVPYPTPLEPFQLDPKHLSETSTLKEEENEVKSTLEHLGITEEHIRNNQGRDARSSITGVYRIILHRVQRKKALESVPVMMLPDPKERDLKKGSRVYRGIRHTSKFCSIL
T1 sequence (P11802 whole entry): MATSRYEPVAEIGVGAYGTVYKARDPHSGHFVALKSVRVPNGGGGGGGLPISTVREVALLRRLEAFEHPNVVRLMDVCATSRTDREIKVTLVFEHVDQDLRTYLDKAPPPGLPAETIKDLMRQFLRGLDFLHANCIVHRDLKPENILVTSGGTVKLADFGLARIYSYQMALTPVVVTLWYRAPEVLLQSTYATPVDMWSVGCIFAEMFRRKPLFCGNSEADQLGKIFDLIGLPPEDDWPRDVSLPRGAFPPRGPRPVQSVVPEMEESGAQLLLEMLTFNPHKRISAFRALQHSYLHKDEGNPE
T1 sequence (P30281 whole entry partner): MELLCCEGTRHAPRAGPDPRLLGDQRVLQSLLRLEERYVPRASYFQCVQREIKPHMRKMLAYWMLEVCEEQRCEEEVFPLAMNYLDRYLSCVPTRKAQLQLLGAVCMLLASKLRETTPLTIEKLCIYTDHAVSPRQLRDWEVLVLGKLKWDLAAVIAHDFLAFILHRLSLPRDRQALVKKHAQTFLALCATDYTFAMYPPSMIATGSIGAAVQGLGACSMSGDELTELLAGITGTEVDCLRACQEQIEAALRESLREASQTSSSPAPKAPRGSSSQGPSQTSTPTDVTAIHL

`COc1ccc2c(c1OC)c(=O)n1c3ccc(O)cc3c3ccnc2c31` [MW01, 5-Hydroxy-10,11-dimethoxy-9H-benzo[c]indolo[3,2,1-ij][1,5]naphthyridin-9-one]: the inhibition at 1 µM on CDK4/cyclin D3 was -2%; on KIT V559D V654A, -10%; on MELK, 26%; at NEK1 it was 23%; on NIM1K, 7%; at PAK2 (PAK65), 14%. In addition, the inhibition at 10 µM at CDK4/cyclin D3 was -6%; on KIT V559D V654A, -12%; on MELK, 54%; on NEK1, 58%; at NIM1K, 13%; on PAK2 (PAK65), 7%.

Regarding `COc1ccc2cc3c(N)nn(C(=O)c4cccc(N(C)C)c4)c3nc2c1` [MW05, (3-Amino-7-methoxypyrazolo[3,4-b]quinolin-1-yl)-[3-(dimethylamino)phenyl]methanone], the inhibition at 1 µM is -6% at CDK4/cyclin D3; -16% at KIT V559D V654A; 28% on MELK; -1% at NEK1; 7% on NIM1K; 14% at PAK2 (PAK65). Moreover, the inhibition at 10 µM was -8% at CDK4/cyclin D3; -37% at KIT V559D V654A; 48% on MELK; 6% on NEK1; 2% on NIM1K; 4% on PAK2 (PAK65).

The term inhibition denotes the change of the read-out against control, counted positive when it falls.
